Results as given in ChEMBL document CHEMBL3885881, “DrugMatrix”.

Species: Rattus norvegicus
Experiment: DrugMatrix - Regimen: Daily Repeat
Type: toxicity, organism-based, Sprague-Dawley
Set-up: regimen Daily Repeat, gender Male, age 6-8 weeks
Details: in vivo, iv, vehicle 100 % SALINE; for ABSOLUTE BASOPHIL / ABSOLUTE EOSINOPHIL / ABSOLUTE LYMPHOCYTE / ABSOLUTE MONOCYTE / ABSOLUTE SEGMENTED NEUTROPHIL / BASOPHIL / EOSINOPHIL / ERYTHROCYTE COUNT / HEMATOCRIT / HEMOGLOBIN / LEUKOCYTE COUNT / LYMPHOCYTE / MEAN CORPUSCULAR HEMOGLOBIN / MEAN CORPUSCULAR HEMOGLOBIN CONCENTRATION / MEAN CORPUSCULAR VOLUME / MONOCYTE / NEUTROPHIL / NUCLEATED RED BLOOD CELLS / PLATELET COUNT: tissue Blood; for ALANINE AMINOTRANSFERASE / ALBUMIN / ALKALINE PHOSPHATASE / ASPARTATE AMINOTRANSFERASE / BLOOD UREA NITROGEN / CARBON DIOXIDE / CHOLESTEROL / CREATINE PHOSPHOKINASE / CREATININE / GLUCOSE / LACTATE DEHYDROGENASE / LIPASE / PHOSPHORUS / POTASSIUM / SODIUM / TOTAL BILIRUBIN / TOTAL PROTEIN / URIC ACID: tissue Plasma
[1] = 0 mg/kg, 72 h, dose level Control, time 3 day
[2] = 0 mg/kg, 120 h, dose level Control, time 5 day
[3] = 18 mg/kg, 72 h, dose level High, time 3 day

N=C(N)c1ccc(OCCCCCOc2ccc(C(=N)N)cc2)cc1 [PENTAMIDINE]
ABSOLUTE BASOPHIL [1]: 0 CELLS/uL | ABSOLUTE EOSINOPHIL [1]: 193.5 CELLS/uL | ABSOLUTE LYMPHOCYTE [1]: 15717.5 CELLS/uL | ABSOLUTE MONOCYTE [1]: 389.33 CELLS/uL | ABSOLUTE SEGMENTED NEUTROPHIL [1]: 1883 CELLS/uL | BASOPHIL [1]: 0% | EOSINOPHIL [1]: 1.17% | ERYTHROCYTE COUNT [1]: 5.68 x10E6/uL | HEMATOCRIT [1]: 35.83% | HEMOGLOBIN [1]: 13.48 G/DL | LEUKOCYTE COUNT [1]: 18.18 x10E3/uL | LYMPHOCYTE [1]: 86.67% | MEAN CORPUSCULAR HEMOGLOBIN [1]: 23.8 pg | MEAN CORPUSCULAR HEMOGLOBIN CONCENTRATION [1]: 37.68 G/DL | MEAN CORPUSCULAR VOLUME [1]: 63.27 fL | MONOCYTE [1]: 2.17% | NEUTROPHIL [1]: 10% | NUCLEATED RED BLOOD CELLS [1]: 0 /100WBC | PLATELET COUNT [1]: 1186.33 x10E3/uL | ALANINE AMINOTRANSFERASE [1]: 68.5 u/L | ALBUMIN [1]: 4.37 G/DL | ALKALINE PHOSPHATASE [1]: 396.33 u/L | ASPARTATE AMINOTRANSFERASE [1]: 92.5 u/L | BLOOD UREA NITROGEN [1]: 18 mg/dL | CARBON DIOXIDE [1]: 24.33 mmol/L | CHOLESTEROL [1]: 67.17 mg/dL | CREATINE PHOSPHOKINASE [1]: 378.67 u/L | CREATININE [1]: 0.19 mg/dL | GLUCOSE [1]: 178.33 mg/dL | LACTATE DEHYDROGENASE [1]: 245.17 u/L | LIPASE [1]: 9.2 u/L | PHOSPHORUS [1]: 12.37 mg/dL | POTASSIUM [1]: 6.48 MEQ/L | SODIUM [1]: 143.28 MEQ/L | TOTAL BILIRUBIN [1]: 0.23 mg/dL | TOTAL PROTEIN [1]: 5.65 G/DL | URIC ACID [1]: 1.6 mg/dL | ABSOLUTE BASOPHIL [2]: 0 CELLS/uL | ABSOLUTE EOSINOPHIL [2]: 27.5 CELLS/uL | ABSOLUTE LYMPHOCYTE [2]: 13593.17 CELLS/uL | ABSOLUTE MONOCYTE [2]: 576 CELLS/uL | ABSOLUTE SEGMENTED NEUTROPHIL [2]: 1836.67 CELLS/uL | BASOPHIL [2]: 0% | EOSINOPHIL [2]: 0.17% | ERYTHROCYTE COUNT [2]: 5.99 x10E6/uL | HEMATOCRIT [2]: 37.42% | HEMOGLOBIN [2]: 13.78 G/DL | LEUKOCYTE COUNT [2]: 16.03 x10E3/uL | LYMPHOCYTE [2]: 85.17% | MEAN CORPUSCULAR HEMOGLOBIN [2]: 23.08 pg | MEAN CORPUSCULAR HEMOGLOBIN CONCENTRATION [2]: 36.83 G/DL | MEAN CORPUSCULAR VOLUME [2]: 62.6 fL | MONOCYTE [2]: 3.5% | NEUTROPHIL [2]: 11.17% | NUCLEATED RED BLOOD CELLS [2]: 0 /100WBC | PLATELET COUNT [2]: 1352.5 x10E3/uL | ALANINE AMINOTRANSFERASE [2]: 49.83 u/L | ALBUMIN [2]: 4.25 G/DL | ALKALINE PHOSPHATASE [2]: 331.33 u/L | ASPARTATE AMINOTRANSFERASE [2]: 86.17 u/L | BLOOD UREA NITROGEN [2]: 19.5 mg/dL | CARBON DIOXIDE [2]: 26.67 mmol/L | CHOLESTEROL [2]: 67.5 mg/dL | CREATINE PHOSPHOKINASE [2]: 346.17 u/L | CREATININE [2]: 0.22 mg/dL | GLUCOSE [2]: 170.67 mg/dL | LACTATE DEHYDROGENASE [2]: 405.5 u/L | LIPASE [2]: 8.83 u/L | PHOSPHORUS [2]: 11.3 mg/dL | POTASSIUM [2]: 6.06 MEQ/L | SODIUM [2]: 143.4 MEQ/L | TOTAL BILIRUBIN [2]: 0.17 mg/dL | TOTAL PROTEIN [2]: 6.22 G/DL | URIC ACID [2]: 1.63 mg/dL | ABSOLUTE BASOPHIL [3]: 0 CELLS/uL | ABSOLUTE EOSINOPHIL [3]: 160 CELLS/uL | ABSOLUTE LYMPHOCYTE [3]: 13847.33 CELLS/uL | ABSOLUTE MONOCYTE [3]: 361.33 CELLS/uL | BASOPHIL [3]: 0% | EOSINOPHIL [3]: 1% | ERYTHROCYTE COUNT [3]: 5.86 x10E6/uL | HEMATOCRIT [3]: 36.7% | HEMOGLOBIN [3]: 13.8 G/DL | LEUKOCYTE COUNT [3]: 15.4 x10E3/uL | LYMPHOCYTE [3]: 90% | MEAN CORPUSCULAR HEMOGLOBIN [3]: 23.57 pg | MEAN CORPUSCULAR HEMOGLOBIN CONCENTRATION [3]: 37.6 G/DL | MEAN CORPUSCULAR VOLUME [3]: 62.63 fL | MONOCYTE [3]: 2.33% | NEUTROPHIL [3]: 6.67% | NUCLEATED RED BLOOD CELLS [3]: 0 /100WBC | PLATELET COUNT [3]: 1444.67 x10E3/uL | ALANINE AMINOTRANSFERASE [3]: 52 u/L | ALBUMIN [3]: 4.13 G/DL | ALKALINE PHOSPHATASE [3]: 303.67 u/L | ASPARTATE AMINOTRANSFERASE [3]: 79 u/L | BLOOD UREA NITROGEN [3]: 19 mg/dL | CARBON DIOXIDE [3]: 26.67 mmol/L | CHOLESTEROL [3]: 75.33 mg/dL | CREATINE PHOSPHOKINASE [3]: 308.67 u/L | CREATININE [3]: 0.22 mg/dL | GLUCOSE [3]: 158.33 mg/dL | LACTATE DEHYDROGENASE [3]: 129.67 u/L | LIPASE [3]: 8.67 u/L | PHOSPHORUS [3]: 11.17 mg/dL | POTASSIUM [3]: 6.46 MEQ/L | SODIUM [3]: 142 MEQ/L | TOTAL BILIRUBIN [3]: 0.23 mg/dL | TOTAL PROTEIN [3]: 6.13 G/DL | URIC ACID [3]: 1.7 mg/dL
